For data set [1] the following is noted: rcm bond, Grubbs 2nd generation catalyst, dichloromethane, 25.0 °C.
Data set [2] has as its target M^pro (Severe acute respiratory syndrome coronavirus 2 (2019-nCoV) (SARS-CoV-2), UniProt P0DTD1). Conditions: read-out: M^pro IC50; GST-AVLQ-3Clpro-GP-6His; substrate MCA-AVLQSGFR-Lys(Dnp)-Lys-NH2; Ex320/Em405.
Source text: An objective of this experiment is to detect the in vitro inhibitory activity against M^pro of the compound of the present disclosure.
Experimental steps and methods: • 1. Prepare a 1× buffer solution (modified Tris buffer solution). • 2. Transfer a to-be-tested compound to the assay plate with Echo's 100% DMSO solution to a final DMSO content of 0.5%. • 3. Prepare a mixed protein solution: Add GST-AVLQ-3Clpro-GP-6His in a 1× assay buffer solution to support the mixed protein solution. • 4. […] Add 10 μL of 2× mixed protein solution in the assay plate, centrifuge for 30s, shake for 30s, and incubate the solution at room temperature for 15 min. • 6. Add 10 μL of 2× mixed substrate solution in the assay plate, centrifuge for 30, and shake for 30s. • 7. Read the data dynamically on Synergy (Ex320/Em405).

The structures appear in SMILES notation. Read-outs that look alike come from different tables or passages of the source.

`COC(=O)[C@@H]1CCC(=O)N(C)CCCC=CCC[C@H](NC(=O)OC(C)(C)C)C(=O)N2C[C@H]3[C@@H]([C@H]2C(=O)N1)C3(C)C`: in data set [1] (from C=CCCCN(C)C(=O)CC[C@H](NC(=O)[C@@H]1[C@@H]2[C@H](CN1C(=O)[C@H](CCC=C)NC(=O)OC(C)(C)C)C2(C)C)C(=O)OC, 5.1 mM, 16.0 h), the ring closure, yield of all isomers came to 94%.

In turn, `COC(=O)[C@@H]1CCC(=O)NCCCC=CC[C@H](NC(=O)OC(C)(C)C)C(=O)N2C[C@@H]3CCC[C@@H]3[C@H]2C(=O)N1` registered a ring closure, yield of all isomers in data set [1] (from C=CCCCNC(=O)CC[C@H](NC(=O)[C@@H]1[C@H]2CCC[C@H]2CN1C(=O)[C@H](CC=C)NC(=O)OC(C)(C)C)C(=O)OC, 3.75 mM, 16.0 h) of 94%.

In data set [1] (from C=CCCNC(=O)CC[C@H](NC(=O)[C@@H]1[C@@H]2[C@H](CN1C(=O)[C@@H](NC(=O)OC(C)(C)C)c1cccc(C=C)c1)C2(C)C)C(=O)OC, 3.55 mM, 16.0 h), `COC(=O)[C@@H]1CCC(=O)NCCC=Cc2cccc(c2)[C@H](NC(=O)OC(C)(C)C)C(=O)N2C[C@H]3[C@@H]([C@H]2C(=O)N1)C3(C)C` returned a ring closure, yield of all isomers of 20%.

In the case of `COC(=O)[C@@H]1CCC(=O)NCCCC=CCCC[C@H](NC(=O)OC(C)(C)C)C(=O)N2C[C@H]3[C@@H]([C@H]2C(=O)N1)C3(C)C`, in data set [1] (from C=CCCCNC(=O)CC[C@H](NC(=O)[C@@H]1[C@@H]2[C@H](CN1C(=O)[C@H](CCCC=C)NC(=O)OC(C)(C)C)C2(C)C)C(=O)OC, 4.53 mM, 2.0 h), the ring closure, yield of all isomers turned out to be 60%.

`CC1(C)[C@@H]2[C@H]3C(=O)N[C@H](C#N)CCC(=O)NCCCCCCC[C@H](NC(=O)C(F)(F)F)C(=O)N3C[C@@H]21` [Compound 1, N-((3S, 15S, 18aS, 19aR, 19bS)-3-cyano-19,19-dimethyl-1,6,16-trioxyeicosanylhydro-2H-cyclopropyl[3,4]pyrrole[1,2-a][1,4, 9]triazocyclooctadecyl-15-yl)-2,2,2-trifluoroacetamide]: the IC50 in data set [2] was determined as 254 nM.

Take `COC(=O)[C@@H]1CCC(=O)NCCCC=CCC[C@H](NC(=O)OC(C)(C)C)C(=O)N2C[C@H]3[C@@H]([C@H]2C(=O)N1)C3(C)C`: the ring closure, yield of all isomers in data set [1] (from C=CCCCNC(=O)CC[C@H](NC(=O)[C@@H]1[C@@H]2[C@H](CN1C(=O)[C@H](CCC=C)NC(=O)OC(C)(C)C)C2(C)C)C(=O)OC, 1.73 mM, 16.0 h) stood at 86%.

Regarding `CC1(C)[C@@H]2[C@H]3C(=O)N[C@H](C#N)CCC(=O)NCCC/C=C/CCC[C@H](NC(=O)C(F)(F)F)C(=O)N3C[C@@H]21` [Compound 8b, N-((3S, 16S, 19aS, 20aR, 20bS, Z/E)-3-cyano-20,20-dimethyl-1,6,17-trioxo-1,2,3,4,5,6,7,8,9,10,13,14,15,16,17,19,19a,20,20a,20b-eicosanylhydrocyclopropyl[3,4]pyrrole[1,2-a][1,4,9]triazacyclonon-16-yl)-2,2,2-trifluoroacetamide], the IC50 in data set [2] is 138 nM.

As for `CC1(C)[C@@H]2[C@H]3C(=O)N[C@H](C#N)CCC(=O)NCCCCCCCC[C@H](NC(=O)C(F)(F)F)C(=O)N3C[C@@H]21` [Compound 6, N-((3S, 16S, 19aS, 20aR, 20bS)-3-cyano-20,20-dimethyl-1,6,17-trioxydocosanylhydrocyclopropa[3,4]pyrrole[1,2-a][1,4,9]triazacyclononanedioic acid-16-yl)-2,2,2-trifluoroacetamide], the IC50 in data set [2] was found to be 379 nM.

Consider `COC(=O)[C@@H]1CCC(=O)NCCCC=CC[C@H](NC(=O)OC(C)(C)C)C(=O)N2C[C@H]3[C@@H]([C@H]2C(=O)N1)C3(C)C`, for which the ring closure, yield of all isomers in data set [1] (from C=CCCCNC(=O)CC[C@H](NC(=O)[C@@H]1[C@@H]2[C@H](CN1C(=O)[C@H](CC=C)NC(=O)OC(C)(C)C)C2(C)C)C(=O)OC, 3.53 mM, 16.0 h) is 100%.

For the compound `CC1(C)[C@@H]2[C@H]3C(=O)N[C@H](C#N)CCC(=O)NCCCCCC[C@H](NC(=O)C(F)(F)F)C(=O)N3C[C@@H]21` [Compound 7, N-((3S, 14S, 17aS, 18aR, 18bS)-3-cyano-18,18-dimethyl-1,6,15-trioxyeicosanylhydrocyclopropyl[3,4]pyrrole[1,2-a][1,4,9]triazacycloheptanedioic acid-14-yl)-2,2,2-trifluoroacetamide], the concentration for half-maximal inhibition (IC50) in data set [2] stood at 16 nM.

For the compound `CC1(C)[C@@H]2[C@H]3C(=O)N[C@H](C#N)CCC(=O)NCCC/C=C\CC[C@H](NC(=O)C(F)(F)F)C(=O)N3C[C@@H]21` [Compound 4, N-((3S, 15S, 18aS, 19aR, 19bS, Z)-3-cyano-19,19-dimethyl-1,6,16-trioxo-1,3,4,5,6,7,8,9,10,13,14,15,16,18,18a,19,19a,19b-octadecahydro-2H-cyclopropane[3,4]pyrrole[1,2-a][1,4,9]triazacyclooctadecene-15-yl)-2,2,2-trifluoroacetamide], the IC50 in data set [2] was 411 nM.

(Values after patent US20240327458A1, “MACROCYCLIC PEPTIDOMIMETIC PROTEASE INHIBITOR AND USE THEREOF” (TENCENT TECHNOLOGY (SHENZHEN) COMPANY LIMITED, priority 2022, published 2024).)
